The values below come from patent US6221874A, “Method of treating bone loss by stimulation of calcitonin” (American Home Products Corporation, priority 1999, dated 2001).

The subject of series [1] is calcitonin secreted by the C1-3 cell line (TT medullary thyroid carcinoma). Nature of the series: Calcitonin Secretion/RIA Assay. The series is classed as cell-based. As to conditions: Homo sapiens, C13, C1-3 cells, active if Secretion Ratio>2.5. On the procedure: Calcitonin Secretion/RIA Assay Protocol
This assay was used to determine the ability of a compound to increase the amount of calcitonin secreted by the C1-3 cell line.
Cell Line: C1-3 (Parent Cell Line: TT-medullary thyroid carcinoma),
1. Glass tubes were labeled to include Total Count (TC), Nonspecific Binding (NSB), Maximum Binding (Bo), Standards, Controls and Patient Sera in duplicate.
2. […] of Standard Zero (Reagent D) was added to tubes 3 through 6 (NSB and Bo).
3. […] of Standards* (Reagents E-1) was added to tubes 7-16 as follows:
4. […] of Patient Serum 1 was added to tubes 21 and 22, Patient Serum 2 was added to tubes 23 and 24, etc.
5. […] of Reagent L (NSB Buffer) was added to tubes 3 and 4.
6. […] of Reagent A (Anti-Calcitonin) was added to all tubes except tubes 1 & 2 (TC) and tube 3 & 4 (NSB). All tubes were vortexed, covered with parafilm or foil and incubated 44±6 hours at 2-8° C.
7. […] of 125.vertline.Calcitonin (Reagent B) was added to all tubes. All tubes were vortexed, covered with parafilm or foil and incubated 22±3 hours at 2-8° C.
8. Reagent C (Anti-Goat Precipitant) was mixed gently but thoroughly by inverting the vial several times before use. 1 mL Reagent C was added to all tubes except 1 and 2 (TC). Tubes were vortexed and incubated 20 minutes at room temperature.
9. All tubes were centrifuged at 1300-1500×g for 15 minutes at 2-8° C.
10. Supernatant was decanted immediately after centrifugation taking care to leave the precipitate intact.
11. Tubes were counted 4 minutes or longer.
Secretion Ratio: Stimulation of calcitonin secretion is expressed as a ratio of secretion activity in the presence of test compound compared to the secretion activity in the untreated control: [formula]
Secretion Activity: Compounds were designated active if Secretion Ratio>2.5.

Series [2] concerns promoter region of the human calcitonin gene (C1-3 reporter cells, TT human thyroid carcinoma). The experiment in a line: Calcitonin/Luciferase Reporter Gene Expression Assay (transcription activation ratio). The following applies: C13, 12 h, C1-3 cells, active if TAR>1.5, read-out: TAR (transcription activation ratio, luciferase activity with test compound vs untreated control). The series is classed as cell-based. (In general: Reporter assays use an easily measured gene product as a stand-in for the process of interest.)

Series [3] relates to Phosphodiesterase IV (PDE-IV) isolated from human U937 cells. The experiment in a line: Inhibition of Phosphodiesterase IV (PDE-IV) Isolated from Human U937 Cells. The series is classed as biochemical. As to conditions: for IC50: linear regression of percent inhibition data bracketing 50% inhibition; for % Inhibition of PDE IV (normalized to rolipram): 1 μM [3H]-cAMP substrate.

For series [4], the system named is Ovarietomy Induced Osteopenia in Rats. Nature of the series: Ovarietomy Induced Osteopenia in Rats (trabecular BMD). As to conditions: Rattus norvegicus, 672 h; 30 mg/kg/day, ip; 4 weeks; n=8; * p < 0.005 vs. vehicle value (Examples 6, 12, 18); read-out: Percent Protection (trabecular BMD). The series is classed as in vivo.
For series [5] the following is noted: post-menopausal osteoporosis; cited from earlier work.
For series [6] the following is noted: cited from earlier work.

`CCCCn1c(=O)n(CC=C(C)C)c(=O)c2c1ncn2S(=O)(=O)c1ccc(C)cc1` [Example 15, 3-Butyl-1-(3-methyl-but-2-enyl)-7-(toluene-4-sulfonyl)-3,7-dihydro-purine-2,6-dione]: the fold induction at 30 µM in series [1] is 3.74. Further, the fold induction at 30 µM in series [2] is 2.1. Besides, in series [3], the IC50 – broadly, the concentration needed to halve the response being measured – was determined as 5.2 µM and the “% Inhibition of PDE IV (normalized to rolipram)” value came out at 35%. Besides, the inhibition in vivo at 30 mg/kg in series [4] is 15%.
`CCCCn1c(=O)c2c(ncn2S(=O)(=O)c2cc(C)c(Cl)cc2C)n(CCCC)c1=O` [Example 18, 1,3-Dibutyl-7-(4-chloro-2,5-dimethyl-benzenesulfonyl)-3,7-dihydro-purine-2,6-dione]: in series [1], the fold induction at 30 µM is 5.32. In addition, the fold induction at 30 µM in series [2] amounted to 2.5. For the same compound, in series [3], the IC50 was found to be 23.3 µM and the “% Inhibition of PDE IV (normalized to rolipram)” value came out at 37%. Besides, the inhibition in vivo at 30 mg/kg in series [4] was determined as 52%.
In the case of “calcitonin: 32 amino acid polypeptide hormone secreted by the parafollicular or C cells of the thyroid gland”, in series [5], the “effect on bone mass and total body calcium” value is “maintenance of bone mass and total body calcium”; the “incidence of hip and vertebral fractures” value is “decreases in the incidence of hip and vertebral fractures”. For the same compound, the “oral bioavailability (in words)” value in series [6] is “lack of oral bioavailability”.
